Measured values taken from EP3020398A1, “Compounds and formulations for reducing scarring” (NITTO DENKO CORPORATION, priority 2014, dated 2016).

What was measured:
[1] = test system: full-thickness skin wounds; assay: Collagen content and organisation (picrosirius red, bright-field and polarised light image analysis) in mouse excisional wound model; format: in vivo, Mice; conditions: wounds treated versus vehicle; Fig. 5
Protocol: Four full-thickness skin wounds were performed by cutting the folded skin on the back of the mice with a 7.5 mm x 3 mm elliptical biopsy punch (Elliptical Excisional Instrument, Acuderm Inc.). The skin on the back was raised and folded at the level of the vertebral column by using the thumb and the index finger. The folded skin was then placed on a wood tongue depressor with the animal laying on one side and two wounds were performed through the folded skin by using an elliptical biopsy punch (Elliptical Excisional Instrument, Acuderm Inc.), resulting in four wounds on the back skin: two on the right of the vertebral column and two on the left (Figure 1). […]
Collagen content and organisation were assessed as published by De Visscher et al. (2007, 2008). […] From this the collagen content and organisation can be measured according to the following method.
The total area (At) of the region of interest (ROI) and the area of the red stained material within that area (Ar) on the bright-field image. On the polarized light image, the area of the red illuminated bundles (Ab) is measured. The collagen density and organized collagen are calculated by the following formulae: Collagen density: (Ar/At) × 100 [formula] […]
Both are expressed as a percentage: collagen density as a percentage of the total area and organized collagen as a percentage of the collagen area.

[2] = test system: full-thickness skin wounds; assay: Scar index analysis (H&E histology) in mouse excisional wound model; format: in vivo, Mice; conditions: for scar index: topical, 5 daily treatments, harvest after 14 days
Protocol: The mouse model used here can be considered one of the simplest and standard murine models for investigating scar formation and wound healing.
Mice were weighed and then anaesthetized with 5% isoflurane in air for induction and then administered 2.5-3% of isoflurane in air for the remainder of the procedure. The animals were administered Tramal (Tramadol) intraperitoneally for analgesia at a 0.1 mg/kg dose. Before surgery the back of the mice was shaved and disinfected with isobetadine soap, rinsed with water and then swabbed with iodium alcohol.
Four full-thickness skin wounds were performed by cutting the folded skin on the back of the mice with a 7.5 mm x 3 mm elliptical biopsy punch (Elliptical Excisional Instrument, Acuderm Inc.). The skin on the back was raised and folded at the level of the vertebral column by using the thumb and the index finger. The folded skin was then placed on a wood tongue depressor with the animal laying on one side and two wounds were performed through the folded skin by using an elliptical biopsy punch (Elliptical Excisional Instrument, Acuderm Inc.), resulting in four wounds on the back skin: two on the right of the vertebral column and two on the left (Figure 1). The epidermis, the dermis and the fat tissue in the wound was carefully removed without touching other tissues. The wounds were then immediately treated with topical application of Composition 1 (Tv - vehicle), Composition 2 (T1 - 1 µM Lipoxin A4), or Composition 3 (T2 - 100 µM Lipoxin A4). The position of the wounds that were treated with active agent (T1 or T2) or treated with vehicle (Tv) was randomised. The wound site was then covered with OP-Film (Somed International, the Netherlands). The borders were then fixed with cyanoacrylate glue (Loctite).
The mice were allowed to recover from the surgical preparation in a clean cage with fresh bedding and under a heating lamp. To avoid possible contamination the mice were placed in individual cages containing a cellulose bed that was changed every 24 hours. Single caging avoids other mice from detaching the adhesive patches.
The treatment was repeated at the day 1, 2, 3 and 4 post-surgery for a total of 5 treatments in the first 5 days of healing. At each time point the mice were briefly anaesthetized with isoflurane and a new dose of ointment was injected through the film onto the wound, after which the animal was left to recover. At day 5 all films were removed.
After 14 days the mice were sacrificed under isoflurane anaesthesia by cervical dislocation to harvest the regenerated tissue. Skin samples were taken. The back of the mouse was carefully shaved paying careful attention to not touch the wound area. […]
The extent of scarring was measured in accordance with the procedure set out by Khorasani et al. (2011). […]

CCCCC[C@H](O)/C=C/C=C\C=C\C=C\[C@@H](O)[C@@H](O)CCCC(=O)O [Lipoxin A4]
Collagen content (in words, versus vehicle) [1]: Lower collagen content was observed in wounds treated with vehicle
Collagen organisation (in words, versus vehicle) [1]: increased values
scar index ([2]; 1 µM Lipoxin A4 treatment, Figure 4): 905 µm
scar index ([2]; 100 µM Lipoxin A4 treatment, Figure 4): 511 µm
lower scarring than wounds treated with Control (quantitative scar index analysis) ([2]; Figure 3, n=5, p<0.008): 49%
scar index ([2]; Pooled Lipoxin A4 treatment, Figure 3, p=0.008 vs vehicle (Vehicle 1478 ± 334)): 748 µm
